Results as given in patent US20140322761A1, “METHOD OF PREPARING SAMPLE FOR NUCLEIC ACID AMPLIFICATION REACTION, NUCLEIC ACID AMPLIFICATION METHOD, AND REAGENT AND MICROCHIP FOR SOLID PHASE NUCLEIC ACID AMPLIFICATION REACTION” (Sony Corporation, priority 2013, published 2014).

Experiments:
[1] = biological target: T1, RNase A (Bos taurus, UniProt P61823); assay: RNase A activity, RNase Alert QC test Kit (Example 3); format: biochemical; settings: RNase A 0.003 U/mL, 37° C., 60 minutes, compared to Comparative Example 2 without SDS
T1 sequence (P61823 27-150): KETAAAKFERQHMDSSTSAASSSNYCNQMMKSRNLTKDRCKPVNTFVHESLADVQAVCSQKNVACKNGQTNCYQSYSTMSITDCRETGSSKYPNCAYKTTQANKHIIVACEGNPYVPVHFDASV
Procedure: RNase Alert QC test Kit (Ambion) was used for measuring the activity of the RNase A. The RNase A was added to the solution containing RNaseAlert substrate with a final concentration of 0.003 U/mL. The SDS was added to the RNase A solution with a final concentration of 0.1% or 1.0% each to be set as Test Example 1 and Test Example 2. […] Test Examples 1 and 2 and Comparative Examples 1 and 2 were kept warm for 60 minutes at a temperature of 37° C. A fluorescent material (FAM) is bonded with a quencher in the RNaseAlert substrate. The fluorescent material emits when the fluorescent material is separated from the quencher using the RNase A. Excitation light and luminescence of the fluorescence was measured to be 490 nm and 520 nm respectively, using Chromo4 (Bio-rad).

[2] = system: RNase A contained in plasma; assay: Activity of RNase A contained in diluted bovine plasma, RNase Alert QC test Kit (Example 4); format: biochemical; settings: 37° C., 60 minutes
Procedure: In Example 4, bovine plasma was used as an organism derived sample. The bovine plasma was used after being diluted 10 times or 20 times in advance. Similarly to Example 3, RNase Alert QC test Kit (Ambion) was used for measuring the activity of the RNase A. RNaseAlert substrate and SDS were added to the 10 times diluted bovine plasma such that final concentrations of the SDS become 0.05%, 0.1%, 0.2%, 0.3%, 0.4%, and 0.5% respectively to be set as Test Examples 1 to 6. In addition, RNaseAlert substrate and SDS were added to the 20 times diluted bovine plasma such that final concentrations of the SDS become 0.05%, 0.1%, 0.2%, 0.3%, 0.4%, and 0.5% respectively to be set as Test Examples 7 to 12. In addition, 10 times diluted bovine plasma to which SDS is not added was set as Comparative Example 1 and 20 times diluted bovine plasma to which SDS is not added was set as Comparative Example 2. Test Examples 1 to 12 and Comparative Examples 1 and 2 were kept warm for 60 minutes at a temperature of 37° C. and the activity of the RNase A was measured during the time period using the same method as in Example 3.

[3] = system: Bifidobacterium bifidum; assay: Nucleic acid extraction from bacteria by heat treatment with SDS, followed by LAMP (Example 5); settings: HPβCD 5% (w/v), LAMP 63° C.
Procedure: In Example 5, Bifidobacterium bifidum from which it is comparatively difficult to extract the nucleic acid was used as bacteria. The Bifidobacterium bifidum (NBRC number: 100015) was obtained from Biological Resource Center (NBRC) of National In statute of Technology and Evaluation (NITE). In addition, the nucleic acid amplification reaction of a genome of Bifidobacterium bifidum was performed using the LAMP method and an LAMP reaction reagent (Eiken Chemical Co., Ltd, Loopamp® DNA Amplification reagent Kit) was used as a sample for the nucleic acid amplification reaction.
A quenching probe shown in Table 3 was used for detecting an amplification nucleic acid chain. In Example 5, excitation light and luminescence of light derived from a fluorescent material FAM bonded with the quenching probe was measured to be 490 nm and 520 nm respectively, using Chromo4 (Bio-rad).
A cell suspension in which the Bifidobacterium bifidum is prepared to be 100 copies/ml. In Example 5, as Test Examples 3 to 5, SDS was added to the cell suspension at the time of heat treatment such that concentrations of SDS become 0.01%, 0.1%, and 1%, respectively (refer to Table 4). In addition, as Test Examples 1 and 2 and Comparative Example 1, cell suspensions to which SDS was not added was prepared (refer to Table 4). The heat treatment was performed for 3 minutes at a temperature of 90° C. for Test Examples 1 and 3 to 5 before starting the nucleic acid amplification reaction. In addition, sonication was performed for Test Example 2 before starting the nucleic acid amplification reaction. After the heating process or the sonication, a LAMP reaction reagent and a primer and quenching probe of Table 3 were added to Test Examples 1 to 5. Furthermore, hydroxyprophyl-β-cyclodextrin (Tokyo Chemical Industry Co., Ltd.) was added to Test Examples 1 to 5 such that a final concentration of the hydroxyprophyl-β-cyclodextrin becomes 5% (w/v). A sample for nucleic acid amplification reaction, a primer, a quenching probe, and HPβCD were added to Comparative Example 1 as well. […]

[4] = system: nucleic acid amplification reaction (genome of Bifidobacterium bifidum as template); assay: LAMP reaction with SDS and HPβCD, bacterial genome as template (Example 6); format: biochemical
Procedure: In Example 6, nucleic acid amplification reaction was performed using the LAMP method using a genome of Bifidobacterium bifidum as a template nucleic acid. In addition, a sample for nucleic acid amplification reaction, a primer, and a quenching probe used for the nucleic acid amplification reaction were the same as those in Example 5. HPβCD was prepared such that a final concentration of HPβCD in a nucleic acid amplification reaction solution becomes 2.5%. Furthermore, SDS was added thereto such that the SDS concentrations become 0%, 0.05%, 0.1%, 0.2%, 0.3%, 0.4%, 0.5%, and 1.0% to be set as Test Examples 1 to 8 respectively. In addition, HPβCD was prepared such that a final concentration of HPβCD in a nucleic acid amplification reaction solution becomes 5.0%. Furthermore, SDS was added thereto such that the SDS concentrations become 0%, 0.05%, 0.1%, 0.2%, 0.3%, 0.4%, 0.5%, and 1.0% to be set as Test Examples 9 to 16 respectively. In addition, nucleic acid amplification reaction solutions prepared such that the HPβCD concentration becomes 0% and the SDS concentrations become 0%, 0.01%, and 0.1% to be set as Comparative Examples 1 to 3.

Compound | activity of the RNase A ([1]; SDS 0.1% (Test Example 1)) | activity of the RNase A ([1]; SDS 1.0% (Test Example 2)) | SDS concentration with which the activity of the RNase A was suppressed ([2]; bovine plasma diluted 10 times (Test Examples 5 and 6)) | SDS concentration with which the activity of the RNase A was suppressed ([2]; bovine plasma diluted 20 times (Test Examples 9 to 12)) | Tt value ([3]; SDS 0.01% at heat treatment, 3 minutes at 90° C. (Test Example 3)) | Tt value ([3]; SDS 0.1% at heat treatment, 3 minutes at 90° C. (Test Example 4)) | amplification of the nucleic acid ([3]; SDS 1% at heat treatment, 3 minutes at 90° C. (Test Example 5)) | SDS concentration at which amplification of the nucleic acid was confirmed ([4]; HPβCD not added) | amplification of the nucleic acid ([4]; HPβCD not added, SDS concentration 0.1%) | HPβCD concentration relative to the SDS concentration to suppress the inhibition of the LAMP reaction due to the SDS ([4]; in the nucleic acid amplification reaction solution)
CCCCCCCCCCCCOS(=O)(=O)[O-].[Na+] [SDS, sodium dodecyl sulfate] | suppressed | suppressed | ≥ 0.4% | ≥ 0.2% | 17.5 min | 14.2 min | no amplification of the nucleic acid | ≤ 0.01% | No amplification of the nucleic acid was confirmed | –
hydroxyprophyl-β-cyclodextrin [HPβCD] | – | – | – | – | – | – | – | – | – | ≥ 8 times
